Numbers after ± are expanded uncertainties.
Experiment: xn = mol fraction of the nth substance listed

Cc1cnccn1 [2-methylpyrazine] + O=C=O
Fluid (supercritical or subcritical phases), Linear displacement technique
Settings	mass density [kg/m3]
329.15 K, 13140 kPa, x1 = 0.017	626 ± 29
329.15 K, 14240 kPa, x1 = 0.017	652 ± 28
331.05 K, 10450 kPa, x1 = 0.081	785 ± 31
331.05 K, 10590 kPa, x1 = 0.081	785 ± 32
331.65 K, 6380 kPa, x1 = 0.624	896 ± 36
331.65 K, 9900 kPa, x1 = 0.624	901 ± 36
331.65 K, 13480 kPa, x1 = 0.624	904 ± 36
331.65 K, 18240 kPa, x1 = 0.624	910 ± 36
332.35 K, 11210 kPa, x1 = 0.023	375 ± 15
332.35 K, 12340 kPa, x1 = 0.023	438 ± 22
332.35 K, 13280 kPa, x1 = 0.023	470 ± 19
332.35 K, 15340 kPa, x1 = 0.023	519 ± 23
332.35 K, 16620 kPa, x1 = 0.023	540 ± 22
332.45 K, 12000 kPa, x1 = 0.122	863 ± 35
332.45 K, 13550 kPa, x1 = 0.122	881 ± 35
332.45 K, 15590 kPa, x1 = 0.122	901 ± 36
333.55 K, 11790 kPa, x1 = 0.033	617 ± 48
333.55 K, 12720 kPa, x1 = 0.033	679 ± 35
333.55 K, 13340 kPa, x1 = 0.033	719 ± 31
333.55 K, 15340 kPa, x1 = 0.033	780 ± 31
335.65 K, 9480 kPa, x1 = 0.264	822 ± 33
335.65 K, 10900 kPa, x1 = 0.264	829 ± 33
335.65 K, 14380 kPa, x1 = 0.264	842 ± 34
335.65 K, 17720 kPa, x1 = 0.264	852 ± 34
336.95 K, 12340 kPa, x1 = 0.062	716 ± 30
336.95 K, 13280 kPa, x1 = 0.062	743 ± 31
336.95 K, 14520 kPa, x1 = 0.062	775 ± 32
336.95 K, 16970 kPa, x1 = 0.062	820 ± 33
337.05 K, 3620 kPa, x1 = 0.857	892 ± 36
337.05 K, 5550 kPa, x1 = 0.857	893 ± 36
337.05 K, 9000 kPa, x1 = 0.857	897 ± 36
337.05 K, 13590 kPa, x1 = 0.857	901 ± 36
338.55 K, 12240 kPa, x1 = 0.081	752 ± 30
338.55 K, 13210 kPa, x1 = 0.081	765 ± 31
338.55 K, 14930 kPa, x1 = 0.081	774 ± 32
339.25 K, 10930 kPa, x1 = 0.156	847 ± 34
339.25 K, 13760 kPa, x1 = 0.156	869 ± 35
339.25 K, 17210 kPa, x1 = 0.156	884 ± 35
340.45 K, 11280 kPa, x1 = 0.017	346 ± 29
340.45 K, 11480 kPa, x1 = 0.017	371 ± 51
340.45 K, 11970 kPa, x1 = 0.017	408 ± 28
340.45 K, 12790 kPa, x1 = 0.017	455 ± 25
341.55 K, 14410 kPa, x1 = 0.091	782 ± 32
341.55 K, 15410 kPa, x1 = 0.091	801 ± 32
341.55 K, 17340 kPa, x1 = 0.091	828 ± 33
342.35 K, 11760 kPa, x1 = 0.023	283 ± 20
342.35 K, 11970 kPa, x1 = 0.023	291 ± 19
342.35 K, 12340 kPa, x1 = 0.023	300 ± 65
344.65 K, 12480 kPa, x1 = 0.033	482 ± 30
344.65 K, 13170 kPa, x1 = 0.033	529 ± 33
344.65 K, 13860 kPa, x1 = 0.033	578 ± 29
344.65 K, 14660 kPa, x1 = 0.033	620 ± 28
344.65 K, 15310 kPa, x1 = 0.033	649 ± 28
344.65 K, 16550 kPa, x1 = 0.033	683 ± 29
344.95 K, 11340 kPa, x1 = 0.339	920 ± 37
344.95 K, 18720 kPa, x1 = 0.339	941 ± 38
345.05 K, 10790 kPa, x1 = 0.264	808 ± 32
345.05 K, 12720 kPa, x1 = 0.264	818 ± 33
345.05 K, 15280 kPa, x1 = 0.264	828 ± 33
345.05 K, 19170 kPa, x1 = 0.264	842 ± 34
346.15 K, 14380 kPa, x1 = 0.039	582 ± 27
346.15 K, 15070 kPa, x1 = 0.039	617 ± 29
348.65 K, 7590 kPa, x1 = 0.624	879 ± 35
348.65 K, 11830 kPa, x1 = 0.624	884 ± 35
348.65 K, 16240 kPa, x1 = 0.624	890 ± 36

Liquid, linear displacement
Settings	mass density [kg/m3]
331.05 K, x1 = 0.081	785 ± 32
331.65 K, x1 = 0.624	892 ± 36
332.35 K, x1 = 0.023	323 ± 13
332.45 K, x1 = 0.122	840 ± 34
333.55 K, x1 = 0.033	574 ± 23
335.65 K, x1 = 0.264	822 ± 33
336.95 K, x1 = 0.062	689 ± 28
337.05 K, x1 = 0.857	888 ± 36
338.55 K, x1 = 0.081	746 ± 30
339.25 K, x1 = 0.156	843 ± 34
341.55 K, x1 = 0.091	731 ± 29
344.95 K, x1 = 0.339	913 ± 38
345.05 K, x1 = 0.264	808 ± 33
346.15 K, x1 = 0.039	462 ± 19

Source: the NIST ThermoML archive (doi:10.1021/je0601457)
